# Data from the NIST ThermoML archive (doi:10.1016/j.jct.2017.12.022).
# ± gives the expanded uncertainty stated by the source.
# Legend:
# [1] = Crystal; DTA
# [2] = Molar enthalpy of transition or fusion; conditions: Crystal; DSC
compound,measurement,setting,value
"COC(=O)c1ccc(C(=O)OC)cc1 [dimethyl 1,4-benzenedicarboxylate]",Normal melting temperature,[1],140.8 ± 1 °C
same,Molar enthalpy of transition or fusion,[2],35.5 ± 0.8 kJ/mol
